Experimental data published in patent US10323026B2, “Heterocyclic compound” (Takeda Pharmaceutical Company Limited, priority 2016, dated 2019).

Molecular target: T1, His-hMAGL (recombinant polyhistidine tagged human MAGL protein) (Homo sapiens, UniProt Q99685)
T1 construct: polyhistidine (His) (N); made in house; host or cells: E. coli BL21(DE3)
T1 sequence (Q99685 1-303): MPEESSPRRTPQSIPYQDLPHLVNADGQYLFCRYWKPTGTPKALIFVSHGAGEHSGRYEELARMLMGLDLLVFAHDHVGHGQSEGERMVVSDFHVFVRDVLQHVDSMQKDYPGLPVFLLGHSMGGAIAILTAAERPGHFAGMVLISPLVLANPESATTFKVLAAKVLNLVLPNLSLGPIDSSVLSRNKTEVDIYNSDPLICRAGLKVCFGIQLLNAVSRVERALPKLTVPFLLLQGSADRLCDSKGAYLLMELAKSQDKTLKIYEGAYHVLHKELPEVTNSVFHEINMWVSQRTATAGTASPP
Assay: Measurement of MAGL inhibitory activity (RapidFire-mass spectrometry of arachidonic acid produced from 2-arachidonylglycerol)
Type: biochemical
Details: test compound 10 μM, His-hMAGL, substrate 2-arachidonylglycerol, 60 min preincubation; for inhibition at 10 µM: read-out: % inhibition (10 μM)
Protocol: Furthermore, acetonitrile (50 μL) containing 3 μM arachidonic acid-d8 (Cayman Chemical Company) was added and the mixture was stirred.
The amount of arachidonic acid in the obtained enzyme reaction mixture was calculated by measuring by RapidFire-mass spectrometry and correcting by the amount of arachidonic acid-d8. High Throughput online solid phase extraction was performed using RapidFire 300™ system (Agilent Technologies, Inc.). Samples were loaded on SPE C4 cartridge (Agilent Technologies, Inc.) and desalted with 0.2 (v/v) % acetic acid (Wako Pure Chemical Industries, Ltd.) in ultrapure water/acetonitrile (70/30, v/v) at a flow rate of 1.5 mL/min, eluted at a flow rate of 0.5 mL/min with 0.2(v/v) % acetic acid dissolved in acetonitrile/ultrapure water (90/10, v/v), and injected into the mass spectrometry part. The injection needle was washed with ultrapure water (500 millisecond) and acetonitrile (500 millisecond) to minimize carry-over. […] The RapidFire300 system was controlled by RapidFire UI software version 3.6 (Agilent Technologies, Inc.).
The mass spectrometry of the resultant product was performed using API4000™ triple quadrupole mass spectrometer (AB SCIEX) equipped with an electrospray ion source (TurboIon Spray™) in a negative selected reaction monitoring (SRM) mode. The conditions of SRM are shown below. The parameters of the instrument were optimized as follows: capillary temperature 600° C., ion spray voltage −4.5 kV, collision gas 8, curtain gas 15 psi, ion source gas 1 60 psi, ion source gas 2 60 psi. The mass spectrometer was controlled by Analyst™ software version 1.5.1 (AB SCIEX). The peak area integration was analyzed using RapidFire integrator software version 3.6 (Agilent Technologies, Inc.).
MAGL inhibitory rate (%) was calculated according to the following calculation formula. (1-(arachidonic acid production amount of test compound addition group−arachidonic acid production amount of enzyme-free group)÷(arachidonic acid production amount of test compound-free group−arachidonic acid production amount of enzyme-free group))×100

| Compound | inhibition at 10 µM [%] | also measured |
| --- | --- | --- |
| Cc1cc(Cl)ccc1COC1CN(C(=O)[C@H]2C[C@]3(COC(=O)N3)C2)C1 [Example 92, (2s,4s)-2-((3-((4-chloro-2-methylbenzyl)oxy)azetidin-1-yl)carbonyl)-7-oxa-5-azaspiro[3.4]octan-6-one] | 100 | – |
| CC1(C(F)(F)c2ccc(F)cc2Cl)CCN(C(=O)[C@H]2C[C@]3(COC(=O)N3)C2)CC1 [Example 52, (2s,4s)-2-((4-((2-chloro-4-fluorophenyl)(difluoro)methyl)-4-methylpiperidin-1-yl)carbonyl)-7-oxa-5-azaspiro[3.4]octan-6-one] | 100 | – |
| CC(Oc1ccc(F)cc1C(F)(F)F)C1CCN(C(=O)[C@H]2C[C@]3(COC(=O)N3)C2)CC1 (some centres unmarked) [Example 66, (2s,4s)-2-((4-(1-(4-fluoro-2-(trifluoromethyl)phenoxy)ethyl)piperidin-1-yl)carbonyl)-7-oxa-5-azaspiro[3.4]octan-6-one] | – | % inhibition (10 μM): 100% |
| Cc1ccc(OC(C)C2CCN(C(=O)[C@H]3C[C@]4(COC(=O)N4)C3)CC2)c(F)c1 (some centres unmarked) [Example 45, (2s,4s)-2-((4-(1-(2-fluoro-4-methylphenoxy)ethyl)piperidin-1-yl)carbonyl)-7-oxa-5-azaspiro[3.4]octan-6-one] | – | % inhibition (10 μM): 100% |
| CC(Oc1ccc(F)cc1C(F)(F)F)C1CCN(C(=O)[C@H]2C[C@]3(CCC(=O)N3)C2)CC1 (some centres unmarked) [Example 73, (2r,4s)-2-((4-(1-(4-fluoro-2-(trifluoromethyl)phenoxy)ethyl)piperidin-1-yl)carbonyl)-5-azaspiro[3.4]octan-6-one] | 100 | – |
| Cc1ccc(COC2CN(C(=O)[C@H]3C[C@@]4(COC(=O)N4)C3)C2)cc1Cl [Example 123, (2r,4r)-2-((3-((3-chloro-4-methylbenzyl)oxy)azetidin-1-yl)carbonyl)-7-oxa-5-azaspiro[3.4]octan-6-one] | 99 | – |
| CC1(C2CCN(C(=O)[C@H]3C[C@]4(COC(=O)N4)C3)CC2)Cc2cc(C(F)(F)F)ccc2O1 (some centres unmarked) [Example 69, (2s,4s)-2-((4-(2-methyl-5-(trifluoromethyl)-2,3-dihydro-1-benzofuran-2-yl)piperidin-1-yl)carbonyl)-7-oxa-5-azaspiro[3.4]octan-6-one] | – | % inhibition (10 μM) (10 µM): 101% |
| O=C1N[C@]2(CO1)C[C@H](C(=O)N1CC(OCc3cc(F)c(C(F)(F)F)cc3F)C1)C2 [Example 101, (2s,4s)-2-((3-((2,5-difluoro-4-(trifluoromethyl)benzyl)oxy)azetidin-1-yl)carbonyl)-7-oxa-5-azaspiro[3.4]octan-6-one] | 100 | – |
| CC(Oc1c(F)cc(F)cc1F)C1CCN(C(=O)[C@H]2C[C@]3(COC(=O)N3)C2)CC1 (some centres unmarked) [Example 85, (2s,4s)-2-((4-(1-(2,4,6-trifluorophenoxy)ethyl)piperidin-1-yl)carbonyl)-7-oxa-5-azaspiro[3.4]octan-6-one] | 100 | – |
| CC(Oc1ccc(F)c(F)c1F)C1CCN(C(=O)[C@H]2C[C@]3(COC(=O)N3)C2)CC1 (some centres unmarked) [Example 81, (2s,4s)-2-((4-(1-(2,3,4-trifluorophenoxy)ethyl)piperidin-1-yl)carbonyl)-7-oxa-5-azaspiro[3.4]octan-6-one] | – | % inhibition (10 μM) (10 µM): 100% |
| CC(Oc1ccc(Cl)cc1F)C1CCN(C(=O)[C@H]2C[C@]3(COC(=O)N3)C2)CC1 (some centres unmarked) [Example 32, (2s,4s)-2-((4-(1-(4-chloro-2-fluorophenoxy)ethyl)piperidin-1-yl)carbonyl)-7-oxa-5-azaspiro[3.4]octan-6-one] | – | % inhibition (10 μM) (10 µM): 100% |
| CC(Oc1ccc(F)cc1F)C1CCN(C(=O)[C@H]2C[C@]3(COC(=O)N3)C2)CC1 (some centres unmarked) [Example 22, (2s,4s)-2-((4-(1-(2,4-difluorophenoxy)ethyl)piperidin-1-yl)carbonyl)-7-oxa-5-azaspiro[3.4]octan-6-one] | – | % inhibition (10 μM) (10 µM): 101% |
| O=C1N[C@]2(CO1)C[C@H](C(=O)N1CCC(COc3ccc(C(F)(F)F)cc3F)CC1)C2 [Example 26, (2s,4s)-2-((4-((2-fluoro-4-(trifluoromethyl)phenoxy)methyl)piperidin-1-yl)carbonyl)-7-oxa-5-azaspiro[3.4]octan-6-one] | 101 | – |
| Cc1cc(F)ccc1OC(C)C1CCN(C(=O)[C@H]2C[C@]3(COC(=O)N3)C2)CC1 (some centres unmarked) [Example 34, (2s,4s)-2-((4-(1-(4-fluoro-2-methylphenoxy)ethyl)piperidin-1-yl)carbonyl)-7-oxa-5-azaspiro[3.4]octan-6-one] | – | % inhibition (10 μM) (10 µM): 101% |
| CC(Oc1ccc(C(F)(F)F)cc1F)C1CN(C(=O)[C@H]2C[C@]3(COC(=O)N3)C2)C1 (some centres unmarked) [Example 14, (2s,4s)-2-((3-(1-(2-fluoro-4-(trifluoromethyl)phenoxy)ethyl)azetidin-1-yl)carbonyl)-7-oxa-5-azaspiro[3.4]octan-6-one] | – | % inhibition (10 μM): 100% |
| O=C1N[C@]2(CO1)C[C@H](C(=O)N1CCC(C(F)(F)c3ccc(Cl)cc3Cl)CC1)C2 [Example 8, (2s,4s)-2-((4-((2,4-dichlorophenyl)(difluoro)methyl)piperidin-1-yl)carbonyl)-7-oxa-5-azaspiro[3.4]octan-6-one] | 100 | – |
| O=C1N[C@]2(CO1)C[C@H](C(=O)N1CC(COc3cc(C4CC4)c(C(F)(F)F)cc3F)C1)C2 [Example 65, (2s,4s)-2-((3-((5-cyclopropyl-2-fluoro-4-(trifluoromethyl)phenoxy)methyl)azetidin-1-yl)carbonyl)-7-oxa-5-azaspiro[3.4]octan-6-one] | 101 | – |
| O=C1N[C@]2(CO1)C[C@H](C(=O)N1CCC(C(c3ccccc3)c3ccccc3)CC1)C2 [Example 50, (2s,4s)-2-((4-(diphenylmethyl)piperidin-1-yl)carbonyl)-7-oxa-5-azaspiro[3.4]octan-6-one] | 101 | – |
| CC(Oc1ccc(C(F)(F)F)cc1F)C1CN(C(=O)[C@H]2C[C@]3(COC(=O)N3)C2)C1 (some centres unmarked) [Example 10, (2s,4s)-2-((3-(1-(2-fluoro-4-(trifluoromethyl)phenoxy)ethyl)azetidin-1-yl)carbonyl)-7-oxa-5-azaspiro[3.4]octan-6-one] | 100 | – |
| CCC1(COc2ccc(F)cc2Cl)CCN(C(=O)[C@H]2C[C@]3(COC(=O)N3)C2)CC1 [Example 44, (2s,4s)-2-((4-((2-chloro-4-fluorophenoxy)methyl)-4-ethylpiperidin-1-yl)carbonyl)-7-oxa-5-azaspiro[3.4]octan-6-one] | 101 | – |
| O=C1N[C@]2(CO1)C[C@H](C(=O)N1CC(CC(F)(F)c3ccc(C(F)(F)F)cc3F)C1)C2 [Example 91, (2s,4s)-2-((3-(2,2-difluoro-2-(2-fluoro-4-(trifluoromethyl)phenyl)ethyl)azetidin-1-yl)carbonyl)-7-oxa-5-azaspiro[3.4]octan-6-one] | 100 | – |
| CC(Oc1c(F)cc(F)cc1F)C1CCN(C(=O)[C@H]2C[C@]3(COC(=O)N3)C2)CC1 (some centres unmarked) [Example 87, (2s,4s)-2-((4-(1-(2,4,6-trifluorophenoxy)ethyl)piperidin-1-yl)carbonyl)-7-oxa-5-azaspiro[3.4]octan-6-one] | – | % inhibition (10 μM): 100% |
| N#Cc1cc(C(F)(F)F)ccc1OCC1CCN(C(=O)[C@H]2C[C@]3(COC(=O)N3)C2)CC1 [Example 128, 2-((1-(((2s,4s)-6-oxo-7-oxa-5-azaspiro[3.4]oct-2-yl)carbonyl)piperidin-4-yl)methoxy)-5-(trifluoromethyl)benzonitrile] | 100 | – |
| CC(Oc1cc(F)c(F)cc1F)C1CCN(C(=O)[C@H]2C[C@]3(COC(=O)N3)C2)CC1 (some centres unmarked) [Example 40, (2s,4s)-2-((4-(1-(2,4,5-trifluorophenoxy)ethyl)piperidin-1-yl)carbonyl)-7-oxa-5-azaspiro[3.4]octan-6-one] | 101 | – |
| O=C1N[C@]2(CO1)C[C@H](C(=O)N1CC(/C=C(\F)c3ccc(C(F)(F)F)c(Cl)c3)C1)C2 [Example 111, (2s,4s)-2-((3-((Z)-2-(3-chloro-4-(trifluoromethyl)phenyl)-2-fluorovinyl)azetidin-1-yl)carbonyl)-7-oxa-5-azaspiro[3.4]octan-6-one] | 100 | – |
| CC(Oc1cc(F)c(F)cc1F)C1CCN(C(=O)[C@H]2C[C@]3(COC(=O)N3)C2)CC1 (some centres unmarked) [Example 54, (2s,4s)-2-((4-(1-(2,4,5-trifluorophenoxy)ethyl)piperidin-1-yl)carbonyl)-7-oxa-5-azaspiro[3.4]octan-6-one] | – | % inhibition (10 μM) (10 µM): 101% |
